# Assays:
# [1] = tested on: intracellular beta-lactamase; experiment: nitrocefin hydrolysis by bacterial cell suspension on Phoenix panel; assay type: cell-based, Klebsiella pneumoniae; set-up: unit not given here; conditions: maximum hydrolysis rate within 10 hrs; for NCF activity: no lysis reagent
# Procedure: (§1) Panel production. Stock solutions with nitrocefin, trehalose, and/or reagents used to lyse the bacterial cells in pH6 MES buffer were prepared and dispensed into wells on the bottom part of a Phoenix™ panel (BD, USA), with one stock solution in one well. Panels were then dried in an oven for approximately 30 min at approximately 70° C. The top part of Phoenix panel was then attached to the bottom part forming a panel system ready for inoculation. The concentrations of reagents after rehydration following Phoenix panel inoculation were 3 mg/ml lysozyme, 1 mM EDTA, and 1% trehalose in 0.1M pH6 MES buffer.
# (§2) Inoculation and lysis testing. Representative strains of bacteria, such as E. coli and Klebsiella pneumoniae, were each streaked on a Trypticase™ Soy Agar with 5% Sheep Blood agar plate (BD, USA) and the plates were incubated at 35° C. for 18 hours. Afterwards, colonies from pure culture on each plate were inoculated into BD Phoenix ID broth and adjusted to a desired turbidity of approximately 0.5 MacFarland. The bacterial cell suspension was then poured into the ID side of the Phoenix panels that were specifically made for cell lysis testing. Once inoculated, the panel was loaded into Phoenix instrument, where nitrocefin hydrolysis rate was monitored by colorimetric signals changes every 20 minutes for 16 hours.
# (§3) Microorganism. The presence of beta-lactamase in the strains tested herein was previously characterized by isoelectric focusing (IEF) gel electrophoresis, PCR testing, or MIC assays, which were performed by microbroth dilution method according to the CLSI (Clinical and Laboratory Standards Institute) standard.
# [2] = tested on: intracellular beta-lactamase; experiment: as above; assay type: cell-based, E. coli; set-up: unit not given here; conditions: maximum hydrolysis rate within 10 hrs; for NCF activity: no lysis reagent
# Procedure: as §1, §2, §3
# [3] = Sample 9, Klebsiella pneumoniae, beta-lactamase +
# [4] = Sample 10, Klebsiella pneumoniae, beta-lactamase +
# [5] = Sample 11, Klebsiella pneumoniae, beta-lactamase +
# [6] = Sample 12, Klebsiella pneumoniae, beta-lactamase +
# [7] = Sample 13, Klebsiella pneumoniae, beta-lactamase +
# [8] = Sample 14, Klebsiella pneumoniae, beta-lactamase +
# [9] = Sample 15, Klebsiella pneumoniae, beta-lactamase +
# [10] = Sample 16, Klebsiella pneumoniae, beta-lactamase −
# [11] = Sample 1, E. coli, beta-lactamase +
# [12] = Sample 2, E. coli, beta-lactamase +
# [13] = Sample 3, E. coli, beta-lactamase +
# [14] = Sample 4, E. coli, beta-lactamase +
# [15] = Sample 5, E. coli, beta-lactamase +
# [16] = Sample 6, E. coli, beta-lactamase +
# [17] = Sample 7, E. coli, beta-lactamase +
# [18] = Sample 8, E. coli, beta-lactamase −
smiles,measurement,setting,value
"O=C(Cc1cccs1)N[C@@H]1C(=O)N2C(C(=O)O)=C(/C=C/c3ccc([N+](=O)[O-])cc3[N+](=O)[O-])CS[C@H]12 [NCF, 3-[2,4-dinitrostyryl]-7-(2-thienylacetamido]3-cephem-4-carboxylic acid]",NCF activity,[1]; [3],1.3
same,NCF activity with lysis reagent,[1]; [3],4.6
same,NCF activity,[1]; [4],3.3
same,NCF activity with lysis reagent,[1]; [4],6.3
same,NCF activity,[1]; [5],3.9
same,NCF activity with lysis reagent,[1]; [5],6.1
same,NCF activity,[1]; [6],2.6
same,NCF activity with lysis reagent,[1]; [6],5.6
same,NCF activity,[1]; [7],6.7
same,NCF activity with lysis reagent,[1]; [7],6.8
same,NCF activity,[1]; [8],7.5
same,NCF activity with lysis reagent,[1]; [8],8.8
same,NCF activity,[1]; [9],9.1
same,NCF activity with lysis reagent,[1]; [9],9.5
same,NCF activity,[1]; [10],1.2
same,NCF activity with lysis reagent,[1]; [10],1.8
same,NCF activity,[2]; [11],1.9
same,NCF activity with lysis reagent,[2]; [11],7.2
same,NCF activity,[2]; [12],2.1
same,NCF activity with lysis reagent,[2]; [12],7.7
same,NCF activity,[2]; [13],2.3
same,NCF activity with lysis reagent,[2]; [13],8.1
same,NCF activity,[2]; [14],1.9
same,NCF activity with lysis reagent,[2]; [14],6.8
same,NCF activity,[2]; [15],8.2
same,NCF activity with lysis reagent,[2]; [15],9.1
same,NCF activity,[2]; [16],7.2
same,NCF activity with lysis reagent,[2]; [16],8.1
same,NCF activity,[2]; [17],6.8
same,NCF activity with lysis reagent,[2]; [17],8.4
same,NCF activity,[2]; [18],1.7
same,NCF activity with lysis reagent,[2]; [18],1.8

# Reference: patent publication US9834807B2, “Compositions for the detection of intracellular bacterial targets and other intracellular micororganism targets” (Becton, Dickinson and Company, priority 2008, dated 2017)
